According to patent US12215084B2, “2(1H)-pyridinones and their use to treat inflammatory conditions” (Conopco, Inc., priority 2019, dated 2025):
Where two headings read alike, the source gives them in different places.

Experiments:
[1] = Octopirox® degradation under cool white light; type: physicochemical; settings: cool white light (indoor light), 24 hours, room temperature, LCMS / UPLC-UV
Experimental: Cool White Light Treatment:
The cool white light (CWL) irradiation was carried out in an X-Rite (Macbeth) Spectra Light III chamber. CWL mode was chosen which provides stable irradiation mimicking the indoor light. The intensity of light was fixed which estimated at 6 μw/cm2 for UVA and 1.5 μw/cm^2 for UVB. The chamber temperature was equal to the room temperature ([…]). The sample was placed in a line close to the center of the chamber. After 24 hours, the sample was analyzed by LCMS (Water UPLC coupled with Quatro Micro MS)., by quantitatively measured using UPLC-UV analysis following DPS derivatization.
The separation was performed by a UPLC BEH C18 column and the mobile phase was acetonitrile/water (60/40, 0.1% formic acid) in isocratic elution. Electrospray ionization in positive mode was applied for MS scan.

[2] = background statement (well known; Clariant introduction), cited from earlier work
THP1-XBlue™ cells = experiment: Anti-inflammation efficacy in THP-1 in vitro assay (LPS co-treatment, IL-6 ELISA); type: cell-based; settings: co-treated with E. coli LPS, PMA-differentiated THP1-XBlue cells, 24 hours, supernatant ELISA, LPS alone 3253.4
Experimental: The following procedure was used to test the anti-inflammation efficacy of the compound:
THP1-XBlue™ (Cat No: thpx-sp, InvivoGen) cells were cultured as suspense in RPMI 1640 medium supplemented with 10% FBS, penicillin (10 U/mL)—streptomycin (10 μg/ML). Cells were differentiated in 24-well plates at the density of 5×10^5 cells/well with 100 nM PMA for 72 hours. Cells were then co-treated with pure E. coli ipopolysaccharides (LPS) and with the compound inside the invention. After 24 hours, the supernatants were collected and measured for interleukin (IL)-6 as pro-inflammatory bio-marker using enzyme-linked immunosorbent assay (ELISA).

quantity of Octopirox® after cool white light irradiation [1] | Compound | light stability [2] | light stability ([2]; listed as piroctone olamine) | Concentration of IL-6 (THP1-XBlue™ cells; 5 μM of the compound) [pg/mL] | Concentration of IL-6 (THP1-XBlue™ cells; 10 μM of the compound) [pg/mL]
reduced | Cc1cc(CC(C)CC(C)(C)C)n(O)c(=O)c1.NCCO (centres unmarked) [Octopirox®, piroctone olamine] | unstable under light | light instable | – | –
– | Cc1cc(O)nc(CC(C)CC(C)(C)C)c1 (centres unmarked) [the compound] | – | – | 3083.3 | 1405.3
